Columns and labels:
Assay in all cases: KinomeScan profiling
Assay type in all cases: binding
[1] = molecular target: EPHA7 (Homo sapiens, UniProt Q15375); conditions: EPHA7, 1 μM; read-out: % control
In short: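 Percent-of-control values derive from RLU, calculated as (test − positive)/(negative − positive) × 100, where DMSO defines 100% and a positive control compound defines 0%. Each compound was tested at 1 μM in the 468-kinase panel; sub-35% readings indicate activity.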

[2] = molecular target: T1, EPHB6 (Homo sapiens, UniProt O15197); conditions: EPHB6, 1 μM; read-out: % control
T1 sequence (O15197 32-1021): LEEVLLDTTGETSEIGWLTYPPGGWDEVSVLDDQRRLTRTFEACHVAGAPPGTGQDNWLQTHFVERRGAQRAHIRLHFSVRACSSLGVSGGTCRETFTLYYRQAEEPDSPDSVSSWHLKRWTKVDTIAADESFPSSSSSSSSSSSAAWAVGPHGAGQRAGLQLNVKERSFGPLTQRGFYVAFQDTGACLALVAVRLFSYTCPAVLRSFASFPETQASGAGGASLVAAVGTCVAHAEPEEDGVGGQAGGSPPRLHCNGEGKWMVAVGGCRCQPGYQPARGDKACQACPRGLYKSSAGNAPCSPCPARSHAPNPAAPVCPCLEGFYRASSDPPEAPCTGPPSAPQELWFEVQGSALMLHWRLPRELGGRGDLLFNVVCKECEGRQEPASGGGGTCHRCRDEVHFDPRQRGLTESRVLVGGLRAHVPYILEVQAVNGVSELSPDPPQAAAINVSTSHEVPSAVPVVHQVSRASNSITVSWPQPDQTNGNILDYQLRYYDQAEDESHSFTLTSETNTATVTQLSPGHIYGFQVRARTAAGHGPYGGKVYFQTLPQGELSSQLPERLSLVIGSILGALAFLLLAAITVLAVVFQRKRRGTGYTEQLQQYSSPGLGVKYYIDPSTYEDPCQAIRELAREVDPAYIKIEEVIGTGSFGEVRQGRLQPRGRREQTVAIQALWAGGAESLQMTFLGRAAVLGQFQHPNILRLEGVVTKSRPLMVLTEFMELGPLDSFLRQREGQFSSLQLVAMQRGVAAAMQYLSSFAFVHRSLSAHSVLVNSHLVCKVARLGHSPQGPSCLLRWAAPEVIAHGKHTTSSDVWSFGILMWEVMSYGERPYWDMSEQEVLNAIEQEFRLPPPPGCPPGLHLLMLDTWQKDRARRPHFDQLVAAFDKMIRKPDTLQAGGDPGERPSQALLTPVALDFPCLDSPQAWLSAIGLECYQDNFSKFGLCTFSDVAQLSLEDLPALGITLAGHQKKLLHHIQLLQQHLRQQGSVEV
In short: (§1)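 Test agents were profiled at a single concentration of 1 μM (DMSO vehicle) on a near-complete set of 468 kinases. Signal is reported relative to vehicle (100%) and a fully displacing control (0%).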

[3] = molecular target: FLT4 (Homo sapiens, UniProt P35916); conditions: FLT4, 1 μM; read-out: % control
Sequence of FLT4 (P35916 25-1363): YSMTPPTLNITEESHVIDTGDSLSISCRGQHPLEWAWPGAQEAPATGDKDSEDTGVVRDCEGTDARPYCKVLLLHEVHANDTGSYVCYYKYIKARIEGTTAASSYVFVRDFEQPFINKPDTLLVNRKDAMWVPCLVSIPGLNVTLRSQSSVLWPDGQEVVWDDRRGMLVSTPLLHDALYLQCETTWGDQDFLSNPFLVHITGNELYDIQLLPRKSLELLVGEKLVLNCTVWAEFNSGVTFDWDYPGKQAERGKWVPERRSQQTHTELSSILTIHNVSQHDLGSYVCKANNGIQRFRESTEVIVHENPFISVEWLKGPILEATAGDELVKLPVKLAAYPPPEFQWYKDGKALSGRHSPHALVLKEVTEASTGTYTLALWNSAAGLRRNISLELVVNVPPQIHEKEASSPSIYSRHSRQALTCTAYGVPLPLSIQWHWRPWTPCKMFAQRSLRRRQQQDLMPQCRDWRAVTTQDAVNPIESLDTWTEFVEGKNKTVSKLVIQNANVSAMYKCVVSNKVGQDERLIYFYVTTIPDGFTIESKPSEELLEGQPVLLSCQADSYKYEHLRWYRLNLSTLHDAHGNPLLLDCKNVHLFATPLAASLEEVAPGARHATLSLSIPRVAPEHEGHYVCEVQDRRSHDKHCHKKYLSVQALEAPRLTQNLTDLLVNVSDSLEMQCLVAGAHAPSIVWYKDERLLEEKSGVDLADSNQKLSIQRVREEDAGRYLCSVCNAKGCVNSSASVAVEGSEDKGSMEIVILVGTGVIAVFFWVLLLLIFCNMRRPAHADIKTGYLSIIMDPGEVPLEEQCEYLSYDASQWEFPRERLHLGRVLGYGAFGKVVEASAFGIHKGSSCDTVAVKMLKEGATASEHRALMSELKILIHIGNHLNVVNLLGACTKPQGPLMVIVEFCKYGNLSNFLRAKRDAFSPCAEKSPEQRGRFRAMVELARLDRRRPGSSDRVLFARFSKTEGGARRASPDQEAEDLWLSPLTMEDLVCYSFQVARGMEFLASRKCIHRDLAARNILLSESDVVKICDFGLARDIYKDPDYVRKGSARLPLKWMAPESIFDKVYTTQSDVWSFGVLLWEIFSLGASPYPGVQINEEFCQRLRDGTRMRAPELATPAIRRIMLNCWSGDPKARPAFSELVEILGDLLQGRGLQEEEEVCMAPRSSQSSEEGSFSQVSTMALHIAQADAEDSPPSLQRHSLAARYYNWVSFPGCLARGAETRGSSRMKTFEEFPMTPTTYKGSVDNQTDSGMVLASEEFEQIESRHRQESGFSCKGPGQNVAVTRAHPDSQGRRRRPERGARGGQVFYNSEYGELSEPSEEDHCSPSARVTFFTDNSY
In short: as §1

[4] = molecular target: T2, GCN2(Kin.Dom.2, S808G) (Homo sapiens, UniProt Q9P2K8, S808G); conditions: read-out: % control
T2 construct: GCN2(Kin.Dom.2, S808G)
T2 sequence (Q9P2K8 590-1001 S808G limits assumed): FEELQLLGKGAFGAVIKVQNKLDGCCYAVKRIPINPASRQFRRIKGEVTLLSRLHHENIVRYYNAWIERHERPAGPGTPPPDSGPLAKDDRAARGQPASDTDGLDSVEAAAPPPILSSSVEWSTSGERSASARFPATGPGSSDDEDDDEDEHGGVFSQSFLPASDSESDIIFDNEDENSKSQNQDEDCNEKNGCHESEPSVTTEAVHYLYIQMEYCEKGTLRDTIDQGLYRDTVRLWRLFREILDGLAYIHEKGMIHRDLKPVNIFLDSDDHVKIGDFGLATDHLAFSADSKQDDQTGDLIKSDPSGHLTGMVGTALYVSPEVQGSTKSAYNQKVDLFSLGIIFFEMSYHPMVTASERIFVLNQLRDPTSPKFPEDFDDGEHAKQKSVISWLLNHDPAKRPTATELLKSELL
In short: as §1

[5] = molecular target: PIK3C2B (Homo sapiens, UniProt O00750); conditions: read-out: % control
Sequence of PIK3C2B (O00750 whole entry): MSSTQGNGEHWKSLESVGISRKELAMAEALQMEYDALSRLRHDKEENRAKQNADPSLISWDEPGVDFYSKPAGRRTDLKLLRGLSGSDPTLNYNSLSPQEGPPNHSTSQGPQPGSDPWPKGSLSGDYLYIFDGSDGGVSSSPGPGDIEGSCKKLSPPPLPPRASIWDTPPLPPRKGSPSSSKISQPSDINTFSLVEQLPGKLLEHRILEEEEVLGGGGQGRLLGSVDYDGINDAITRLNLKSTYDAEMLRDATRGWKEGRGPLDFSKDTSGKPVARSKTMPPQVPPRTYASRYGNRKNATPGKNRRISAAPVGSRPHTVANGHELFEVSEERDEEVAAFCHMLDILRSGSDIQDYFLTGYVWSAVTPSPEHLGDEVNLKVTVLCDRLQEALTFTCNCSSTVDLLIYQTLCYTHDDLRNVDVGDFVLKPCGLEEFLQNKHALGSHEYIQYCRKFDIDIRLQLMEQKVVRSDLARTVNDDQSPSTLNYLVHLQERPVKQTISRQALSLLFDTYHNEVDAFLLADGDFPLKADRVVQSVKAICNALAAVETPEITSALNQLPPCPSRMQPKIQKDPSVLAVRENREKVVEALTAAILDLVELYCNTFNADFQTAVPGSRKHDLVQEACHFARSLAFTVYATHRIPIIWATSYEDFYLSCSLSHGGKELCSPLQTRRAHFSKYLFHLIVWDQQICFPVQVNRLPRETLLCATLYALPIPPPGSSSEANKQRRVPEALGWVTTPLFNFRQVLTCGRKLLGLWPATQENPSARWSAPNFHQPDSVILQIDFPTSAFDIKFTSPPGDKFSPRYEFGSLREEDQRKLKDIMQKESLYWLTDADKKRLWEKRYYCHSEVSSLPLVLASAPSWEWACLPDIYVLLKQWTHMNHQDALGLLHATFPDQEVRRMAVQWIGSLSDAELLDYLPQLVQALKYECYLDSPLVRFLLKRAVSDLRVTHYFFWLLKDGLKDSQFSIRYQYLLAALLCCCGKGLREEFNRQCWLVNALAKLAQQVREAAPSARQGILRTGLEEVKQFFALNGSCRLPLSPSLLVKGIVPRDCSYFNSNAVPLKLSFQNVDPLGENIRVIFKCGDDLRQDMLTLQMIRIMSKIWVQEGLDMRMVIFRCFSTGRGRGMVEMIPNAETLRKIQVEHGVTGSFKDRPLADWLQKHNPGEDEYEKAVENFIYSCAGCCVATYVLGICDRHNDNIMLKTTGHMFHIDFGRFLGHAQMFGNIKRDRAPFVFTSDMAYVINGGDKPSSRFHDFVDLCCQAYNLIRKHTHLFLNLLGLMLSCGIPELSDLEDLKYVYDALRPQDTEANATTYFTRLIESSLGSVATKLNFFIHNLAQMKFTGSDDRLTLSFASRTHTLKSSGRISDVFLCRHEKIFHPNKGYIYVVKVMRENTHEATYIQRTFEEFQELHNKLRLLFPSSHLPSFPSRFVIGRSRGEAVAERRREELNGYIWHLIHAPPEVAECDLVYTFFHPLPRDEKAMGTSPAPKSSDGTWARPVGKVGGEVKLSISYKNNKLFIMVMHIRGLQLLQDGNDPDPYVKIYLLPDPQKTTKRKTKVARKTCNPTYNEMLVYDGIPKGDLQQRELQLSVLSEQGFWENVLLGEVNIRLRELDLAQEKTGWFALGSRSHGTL
In short: as §1

[6] = molecular target: T3, PIK3CA(Q546K) (Homo sapiens, UniProt P42336, Q546K); conditions: read-out: % control
T3 construct: purchased KinomeScan® (panel service)
T3 sequence (P42336 whole entry Q546K): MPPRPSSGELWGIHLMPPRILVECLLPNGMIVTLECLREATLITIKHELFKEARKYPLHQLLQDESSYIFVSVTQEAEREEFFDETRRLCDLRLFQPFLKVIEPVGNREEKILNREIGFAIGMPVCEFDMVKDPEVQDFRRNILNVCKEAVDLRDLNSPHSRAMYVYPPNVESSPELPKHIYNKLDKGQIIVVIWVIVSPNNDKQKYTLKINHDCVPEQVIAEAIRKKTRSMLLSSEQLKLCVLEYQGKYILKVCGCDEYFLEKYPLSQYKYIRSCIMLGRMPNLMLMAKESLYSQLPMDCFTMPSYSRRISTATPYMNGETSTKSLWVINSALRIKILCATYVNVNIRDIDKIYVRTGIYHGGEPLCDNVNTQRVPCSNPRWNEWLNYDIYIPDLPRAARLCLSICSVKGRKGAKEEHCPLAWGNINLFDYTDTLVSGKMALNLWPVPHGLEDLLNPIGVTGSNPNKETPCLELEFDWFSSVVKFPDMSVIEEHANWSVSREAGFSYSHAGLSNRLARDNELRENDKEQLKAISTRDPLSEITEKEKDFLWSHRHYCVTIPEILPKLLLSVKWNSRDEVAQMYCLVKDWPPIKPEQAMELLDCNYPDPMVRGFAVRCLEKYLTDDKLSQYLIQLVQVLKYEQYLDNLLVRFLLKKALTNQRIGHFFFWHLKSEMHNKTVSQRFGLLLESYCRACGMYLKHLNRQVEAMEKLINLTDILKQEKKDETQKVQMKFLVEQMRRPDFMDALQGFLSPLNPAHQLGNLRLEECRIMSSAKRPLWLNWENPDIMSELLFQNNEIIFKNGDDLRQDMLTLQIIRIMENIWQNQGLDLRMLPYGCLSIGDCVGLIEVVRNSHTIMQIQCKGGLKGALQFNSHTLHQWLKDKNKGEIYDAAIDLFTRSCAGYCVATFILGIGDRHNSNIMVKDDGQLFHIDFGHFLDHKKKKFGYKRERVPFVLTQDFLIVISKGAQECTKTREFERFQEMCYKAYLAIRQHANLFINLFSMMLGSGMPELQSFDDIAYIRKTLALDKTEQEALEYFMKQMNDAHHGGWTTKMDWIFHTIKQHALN
In short: as §1

[7] = molecular target: T4, RPS6KA5(Kin.Dom.1-N-terminal) (Homo sapiens, UniProt O75582); conditions: read-out: % control
T4 construct: RPS6KA5(Kin.Dom.1-N-terminal)
T4 sequence (O75582 49-318 limits assumed): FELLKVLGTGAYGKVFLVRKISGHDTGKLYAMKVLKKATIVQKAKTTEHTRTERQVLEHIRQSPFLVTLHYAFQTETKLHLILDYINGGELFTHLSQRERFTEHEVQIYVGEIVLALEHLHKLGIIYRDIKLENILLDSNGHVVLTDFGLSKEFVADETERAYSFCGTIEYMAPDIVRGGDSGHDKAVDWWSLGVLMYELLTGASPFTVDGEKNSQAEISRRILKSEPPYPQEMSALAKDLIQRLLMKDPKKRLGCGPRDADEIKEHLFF
In short: as §1

Structure (SMILES) | remaining binding at 1 µM [1] [%] | remaining binding at 1 µM [2] [%] | remaining binding at 1 µM [3] [%] | remaining binding at 1 µM [4] [%] | remaining binding at 1 µM [5] [%] | remaining binding at 1 µM [6] [%] | remaining binding at 1 µM [7] [%]
O=C(c1ccc(-c2cnc3[nH]cc(Cl)c3c2NC2CCCC2)cc1)N1CCC(N2CCOCC2)CC1 [Compound 101, (4-(3-chloro-4-(cyclopentylamino)-1H-pyrrolo[2,3-b]pyridin-5-yl)phenyl)(4-morpholinopiperidin-1-yl)methanone] | 96 | 100 | 100 | 100 | 96 | 93 | 90
CNc1c(-c2cnn([C@H]3CCN(C(C)=O)C[C@@H]3F)c2)cnc2[nH]cc(Cl)c12 [Compound 77, 1-((3S,4S)-4-(4-(3-chloro-4-(methylamino)-1H-pyrrolo[2,3-b]pyridin-5-yl)-1H-pyrazol-1-yl)-3-fluoropiperidin-1-yl)ethan-1-one] | 78 | 55 | 47 | 34 | 100 | 100 | 100
CNc1c(-c2ccc(C(=O)N3CCC(N4CCOCC4)CC3)cc2)cnc2[nH]cc(Cl)c12 [Compound 96, (4-(3-chloro-4-(methylamino)-1H-pyrrolo[2,3-b]pyridin-5-yl)phenyl)(4-morpholinopiperidin-1-yl)methanone] | 96 | 99 | 66 | 54 | 96 | 100 | 100

Reference: US12275731B2, “Azaindole inhibitors of wild-type and mutant forms of LRRK2” (DANA-FARBER CANCER INSTITUTE, INC., priority 2018, dated 2025)
